Tests used:
Assay in all cases: KINOMEscan competition binding
Details in all cases: compound 10.0 µM
[1] = biological target: MAP4K2 (human) (UniProt Q12851)
[2] = biological target: IKBKE (human) (UniProt Q14164)
[3] = biological target: NLK (human) (UniProt Q9UBE8)
[4] = biological target: PRKD3 (human) (UniProt O94806)
[5] = tested on: FGFR3 (human), P22607 [G697C]
[6] = biological target: BRSK2 (human) (UniProt Q8IWQ3)
[7] = biological target: NUAK1 (human) (UniProt O60285)
[8] = tested on: FLT3 (human), P36888 [D835Y]
[9] = biological target: MAPK1 (human) (UniProt P28482)
[10] = biological target: MYO3B (human) (UniProt Q8WXR4)
[11] = biological target: STK16 (human) (UniProt O75716)
[12] = biological target: IKBKB (human) (UniProt O14920)
[13] = biological target: CHUK (human) (UniProt O15111)
[14] = biological target: DAPK2 (human) (UniProt Q9UIK4)
[15] = biological target: NEK7 (human) (UniProt Q8TDX7)
[16] = biological target: ACVRL1 (human) (UniProt P37023)
[17] = biological target: STK39 (human) (UniProt Q9UEW8)
[18] = biological target: MAP3K3 (human) (UniProt Q99759)
[19] = biological target: STK17B (human) (UniProt O94768)
[20] = biological target: CAMK1G (human) (UniProt Q96NX5)
[21] = biological target: CDC42BPG (human) (UniProt Q6DT37)
[22] = biological target: PRKACB (human) (UniProt P22694)
[23] = biological target: CDK18 (human) (UniProt Q07002)
[24] = biological target: TEC (human) (UniProt P42680)
[25] = biological target: DCLK3 (human) (UniProt Q9C098)
[26] = biological target: JAK1 JH2 pseudokinase (human) (UniProt P23458)
[27] = biological target: PIP4K2B (human) (UniProt P78356)
[28] = biological target: AURKC (human) (UniProt Q9UQB9)
[29] = biological target: LYN (human) (UniProt P07948)
[30] = biological target: TXK (human) (UniProt P42681)
[31] = biological target: AKT3 (human) (UniProt Q9Y243)
[32] = biological target: MAPK13 (human) (UniProt O15264)
[33] = biological target: CDC2L2 (human) (UniProt Q9UQ88)
[34] = biological target: EPHA4 (human) (UniProt P54764)
[35] = biological target: BLK (human) (UniProt P51451)
[36] = biological target: CSK (human) (UniProt P41240)
[37] = biological target: RPS6KA2 KD2 (human) (UniProt Q15349)
[38] = biological target: EPHB1 (human) (UniProt P54762)
[39] = biological target: CAMK2G (human) (UniProt Q13555)
[40] = tested on: EGFR (human), P00533 [G719C]

Sequence of LYN (human) (P07948 whole entry, looked up): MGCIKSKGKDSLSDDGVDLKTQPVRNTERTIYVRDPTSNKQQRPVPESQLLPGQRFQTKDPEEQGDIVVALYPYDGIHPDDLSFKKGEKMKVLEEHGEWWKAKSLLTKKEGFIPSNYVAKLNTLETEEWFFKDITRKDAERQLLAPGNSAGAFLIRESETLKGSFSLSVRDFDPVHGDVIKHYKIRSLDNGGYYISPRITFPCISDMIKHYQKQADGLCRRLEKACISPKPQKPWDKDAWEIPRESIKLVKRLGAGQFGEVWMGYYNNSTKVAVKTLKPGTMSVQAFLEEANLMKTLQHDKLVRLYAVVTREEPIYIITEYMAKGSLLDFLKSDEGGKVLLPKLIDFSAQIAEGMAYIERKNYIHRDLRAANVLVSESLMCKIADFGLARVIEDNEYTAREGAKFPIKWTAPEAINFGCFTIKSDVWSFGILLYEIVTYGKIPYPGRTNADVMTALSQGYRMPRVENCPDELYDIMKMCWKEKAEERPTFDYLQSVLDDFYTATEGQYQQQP
Sequence of NLK (human) (Q9UBE8 whole entry, looked up): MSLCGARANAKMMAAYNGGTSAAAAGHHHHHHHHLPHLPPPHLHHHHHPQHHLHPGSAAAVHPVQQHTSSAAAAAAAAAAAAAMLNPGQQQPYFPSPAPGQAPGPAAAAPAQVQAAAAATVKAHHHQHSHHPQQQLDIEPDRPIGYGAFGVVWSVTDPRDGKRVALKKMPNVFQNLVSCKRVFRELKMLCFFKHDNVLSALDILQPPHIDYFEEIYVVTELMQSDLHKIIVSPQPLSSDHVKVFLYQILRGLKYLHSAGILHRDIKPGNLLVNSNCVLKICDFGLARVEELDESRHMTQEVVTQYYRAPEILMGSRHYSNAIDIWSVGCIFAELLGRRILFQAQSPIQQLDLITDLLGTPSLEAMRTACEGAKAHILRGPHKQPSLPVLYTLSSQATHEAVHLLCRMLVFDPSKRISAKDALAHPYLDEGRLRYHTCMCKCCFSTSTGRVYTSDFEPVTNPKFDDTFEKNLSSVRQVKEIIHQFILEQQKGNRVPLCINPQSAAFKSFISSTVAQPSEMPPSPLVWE
Sequence of FGFR3 (human), P22607 [G697C] (P22607 whole entry G697C, looked up): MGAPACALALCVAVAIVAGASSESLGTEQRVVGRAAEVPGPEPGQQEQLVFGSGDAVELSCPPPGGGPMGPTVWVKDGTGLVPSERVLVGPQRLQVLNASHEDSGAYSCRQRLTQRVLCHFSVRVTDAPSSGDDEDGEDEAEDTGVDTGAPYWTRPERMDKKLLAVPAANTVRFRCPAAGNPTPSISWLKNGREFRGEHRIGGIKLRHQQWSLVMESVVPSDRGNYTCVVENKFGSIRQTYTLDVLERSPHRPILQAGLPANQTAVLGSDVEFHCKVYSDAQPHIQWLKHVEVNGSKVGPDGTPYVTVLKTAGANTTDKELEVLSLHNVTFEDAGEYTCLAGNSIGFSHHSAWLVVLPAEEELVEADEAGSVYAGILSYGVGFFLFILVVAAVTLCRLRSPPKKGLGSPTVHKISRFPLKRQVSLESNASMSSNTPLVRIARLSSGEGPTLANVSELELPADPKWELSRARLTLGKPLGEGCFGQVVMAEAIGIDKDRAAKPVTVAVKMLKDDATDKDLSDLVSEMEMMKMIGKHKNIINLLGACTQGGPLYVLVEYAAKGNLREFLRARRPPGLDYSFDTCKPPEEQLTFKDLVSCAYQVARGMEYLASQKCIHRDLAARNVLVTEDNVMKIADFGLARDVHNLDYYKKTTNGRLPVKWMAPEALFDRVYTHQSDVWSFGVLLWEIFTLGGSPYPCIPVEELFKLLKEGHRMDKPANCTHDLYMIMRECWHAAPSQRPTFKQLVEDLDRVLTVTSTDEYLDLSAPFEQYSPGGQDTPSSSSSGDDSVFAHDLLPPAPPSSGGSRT
Sequence of NUAK1 (human) (O60285 whole entry, looked up): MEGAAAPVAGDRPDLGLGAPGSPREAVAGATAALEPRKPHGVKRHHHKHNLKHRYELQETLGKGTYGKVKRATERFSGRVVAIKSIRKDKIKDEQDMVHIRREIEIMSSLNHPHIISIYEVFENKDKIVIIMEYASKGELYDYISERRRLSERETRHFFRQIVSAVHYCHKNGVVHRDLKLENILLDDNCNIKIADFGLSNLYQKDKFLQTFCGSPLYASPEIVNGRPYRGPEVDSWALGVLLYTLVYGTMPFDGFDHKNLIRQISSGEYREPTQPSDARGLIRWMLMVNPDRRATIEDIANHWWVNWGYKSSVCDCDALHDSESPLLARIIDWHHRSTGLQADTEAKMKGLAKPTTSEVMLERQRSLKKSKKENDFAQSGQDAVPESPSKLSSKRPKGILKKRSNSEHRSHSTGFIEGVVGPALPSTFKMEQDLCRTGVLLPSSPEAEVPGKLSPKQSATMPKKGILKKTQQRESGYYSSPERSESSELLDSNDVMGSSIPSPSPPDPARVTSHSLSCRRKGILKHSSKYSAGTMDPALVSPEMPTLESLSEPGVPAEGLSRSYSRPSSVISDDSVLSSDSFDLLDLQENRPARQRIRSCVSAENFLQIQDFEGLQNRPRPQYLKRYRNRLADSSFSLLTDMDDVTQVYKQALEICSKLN
Sequence of CHUK (human) (O15111 whole entry, looked up): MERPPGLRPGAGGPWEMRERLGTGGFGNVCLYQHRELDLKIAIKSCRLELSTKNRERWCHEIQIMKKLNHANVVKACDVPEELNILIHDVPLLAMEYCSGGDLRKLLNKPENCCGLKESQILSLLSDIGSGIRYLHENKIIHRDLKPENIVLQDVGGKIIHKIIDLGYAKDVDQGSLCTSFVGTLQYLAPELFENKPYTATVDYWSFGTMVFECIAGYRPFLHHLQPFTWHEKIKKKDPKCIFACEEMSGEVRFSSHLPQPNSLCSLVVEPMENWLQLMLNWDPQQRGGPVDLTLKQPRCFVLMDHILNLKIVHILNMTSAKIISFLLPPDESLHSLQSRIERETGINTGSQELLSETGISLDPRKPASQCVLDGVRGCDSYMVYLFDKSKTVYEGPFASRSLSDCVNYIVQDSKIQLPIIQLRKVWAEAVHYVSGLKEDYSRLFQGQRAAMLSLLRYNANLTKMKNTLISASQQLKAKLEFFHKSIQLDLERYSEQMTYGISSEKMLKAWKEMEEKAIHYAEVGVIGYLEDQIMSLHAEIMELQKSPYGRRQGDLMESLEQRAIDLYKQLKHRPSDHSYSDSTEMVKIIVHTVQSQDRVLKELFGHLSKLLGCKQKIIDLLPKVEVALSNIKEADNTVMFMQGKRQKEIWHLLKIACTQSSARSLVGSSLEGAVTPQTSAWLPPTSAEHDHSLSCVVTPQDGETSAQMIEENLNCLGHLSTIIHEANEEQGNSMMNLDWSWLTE
Sequence of PRKD3 (human) (O94806 whole entry, looked up): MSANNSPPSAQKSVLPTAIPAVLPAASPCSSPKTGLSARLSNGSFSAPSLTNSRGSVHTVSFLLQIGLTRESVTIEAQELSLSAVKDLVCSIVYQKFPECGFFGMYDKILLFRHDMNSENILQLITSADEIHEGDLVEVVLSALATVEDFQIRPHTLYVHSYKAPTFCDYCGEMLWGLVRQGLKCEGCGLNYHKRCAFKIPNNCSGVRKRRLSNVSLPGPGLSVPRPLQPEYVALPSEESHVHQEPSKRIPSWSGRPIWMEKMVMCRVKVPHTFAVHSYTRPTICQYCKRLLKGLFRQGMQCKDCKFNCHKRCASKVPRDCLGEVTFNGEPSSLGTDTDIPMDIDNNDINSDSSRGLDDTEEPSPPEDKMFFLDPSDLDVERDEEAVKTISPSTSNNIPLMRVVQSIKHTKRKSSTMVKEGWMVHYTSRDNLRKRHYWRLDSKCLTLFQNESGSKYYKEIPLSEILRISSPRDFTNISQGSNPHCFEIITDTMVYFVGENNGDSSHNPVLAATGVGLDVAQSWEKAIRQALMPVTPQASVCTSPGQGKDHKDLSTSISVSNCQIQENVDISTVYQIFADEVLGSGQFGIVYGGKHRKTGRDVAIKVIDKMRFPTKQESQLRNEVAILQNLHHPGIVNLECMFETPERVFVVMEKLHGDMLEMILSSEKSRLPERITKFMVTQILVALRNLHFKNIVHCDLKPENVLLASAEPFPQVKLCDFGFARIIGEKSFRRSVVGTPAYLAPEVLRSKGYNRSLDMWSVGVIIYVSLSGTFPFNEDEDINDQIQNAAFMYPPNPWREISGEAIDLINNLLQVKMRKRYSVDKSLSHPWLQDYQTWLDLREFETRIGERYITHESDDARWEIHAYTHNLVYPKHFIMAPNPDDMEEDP
Sequence of IKBKE (human) (Q14164 whole entry, looked up): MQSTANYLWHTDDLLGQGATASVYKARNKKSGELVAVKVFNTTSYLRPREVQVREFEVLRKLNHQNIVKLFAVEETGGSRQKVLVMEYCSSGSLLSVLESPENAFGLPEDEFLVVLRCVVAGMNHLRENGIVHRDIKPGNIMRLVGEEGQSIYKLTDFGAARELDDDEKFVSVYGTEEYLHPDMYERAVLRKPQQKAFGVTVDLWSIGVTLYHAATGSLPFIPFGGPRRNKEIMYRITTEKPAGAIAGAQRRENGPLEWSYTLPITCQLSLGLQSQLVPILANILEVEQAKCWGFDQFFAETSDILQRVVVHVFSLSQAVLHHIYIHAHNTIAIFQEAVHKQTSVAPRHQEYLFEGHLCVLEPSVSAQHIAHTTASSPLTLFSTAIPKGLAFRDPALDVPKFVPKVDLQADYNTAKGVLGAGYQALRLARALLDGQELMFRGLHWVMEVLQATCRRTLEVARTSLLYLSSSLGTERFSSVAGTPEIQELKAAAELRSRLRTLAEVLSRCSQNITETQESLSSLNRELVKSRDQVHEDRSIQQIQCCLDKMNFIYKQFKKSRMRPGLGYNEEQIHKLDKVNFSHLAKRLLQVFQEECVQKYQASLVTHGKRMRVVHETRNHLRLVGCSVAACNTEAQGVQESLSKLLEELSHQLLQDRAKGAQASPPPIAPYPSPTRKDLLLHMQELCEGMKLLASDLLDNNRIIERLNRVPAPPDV

Structure (SMILES)	kinase still bound, per cent of control [1] [%]	kinase still bound, per cent of control [2] [%]	kinase still bound, per cent of control [3] [%]	kinase still bound, per cent of control [4] [%]	kinase still bound, per cent of control [5] [%]	kinase still bound, per cent of control [6] [%]	kinase still bound, per cent of control [7] [%]	kinase still bound, per cent of control [8] [%]	kinase still bound, per cent of control [9] [%]	kinase still bound, per cent of control [10] [%]	kinase still bound, per cent of control [11] [%]	kinase still bound, per cent of control [12] [%]	kinase still bound, per cent of control [13] [%]	kinase still bound, per cent of control [14] [%]	kinase still bound, per cent of control [15] [%]	kinase still bound, per cent of control [16] [%]	kinase still bound, per cent of control [17] [%]	kinase still bound, per cent of control [18] [%]	kinase still bound, per cent of control [19] [%]	kinase still bound, per cent of control [20] [%]	further results
N#C/C(=C1/Nc2ccccc2S1)c1ccnc(NCCc2cccnc2)n1	36	100	100	84	100	100	100	53	84	100	13	68	42	34	84	100	100	74	100	61	kinase still bound, per cent of control [21]: 89%; kinase still bound, per cent of control [22]: 100%; kinase still bound, per cent of control [23]: 92%; kinase still bound, per cent of control [24]: 92%; kinase still bound, per cent of control [25]: 100%; kinase still bound, per cent of control [26]: 2.6%; kinase still bound, per cent of control [27]: 26%; kinase still bound, per cent of control [28]: 67%; kinase still bound, per cent of control [29]: 100%; kinase still bound, per cent of control [30]: 61%; kinase still bound, per cent of control [31]: 100%; kinase still bound, per cent of control [32]: 51%; kinase still bound, per cent of control [33]: 85%; kinase still bound, per cent of control [34]: 100%; kinase still bound, per cent of control [35]: 100%; kinase still bound, per cent of control [36]: 88%; kinase still bound, per cent of control [37]: 56%; kinase still bound, per cent of control [38]: 100%; kinase still bound, per cent of control [39]: 78%
Cc1cn(-c2cc(C(=O)Nc3ccc(C)c(NC(=O)c4ccno4)c3)cc(C(F)(F)F)c2)cn1	100	100	100	100	100	100	100	100	100	100	100	100	100	100	100	100	100	100	100	100	kinase still bound, per cent of control [21]: 100%; kinase still bound, per cent of control [22]: 100%; kinase still bound, per cent of control [23]: 100%; kinase still bound, per cent of control [24]: 100%; kinase still bound, per cent of control [40]: 100%; kinase still bound, per cent of control [25]: 100%; kinase still bound, per cent of control [26]: 100%; kinase still bound, per cent of control [27]: 100%; kinase still bound, per cent of control [28]: 100%; kinase still bound, per cent of control [29]: 4.8%; kinase still bound, per cent of control [30]: 12%; kinase still bound, per cent of control [31]: 100%; kinase still bound, per cent of control [32]: 100%; kinase still bound, per cent of control [33]: 100%; kinase still bound, per cent of control [34]: 4%; kinase still bound, per cent of control [35]: 15%; kinase still bound, per cent of control [36]: 29%; kinase still bound, per cent of control [37]: 100%; kinase still bound, per cent of control [38]: 21%; kinase still bound, per cent of control [39]: 100%
CCCS(=O)(=O)Nc1ccc(F)c(C(=O)c2c[nH]c3ncc(Cl)cc23)c1F	74	91	100	100	100	86	100	31	100	47	18	75	89	80	59	100	100	61	68	76	kinase still bound, per cent of control [21]: 74%; kinase still bound, per cent of control [22]: 100%; kinase still bound, per cent of control [23]: 73%; kinase still bound, per cent of control [24]: 100%; kinase still bound, per cent of control [40]: 50%; kinase still bound, per cent of control [25]: 26%; kinase still bound, per cent of control [26]: 100%; kinase still bound, per cent of control [27]: 100%; kinase still bound, per cent of control [28]: 100%; kinase still bound, per cent of control [29]: 24%; kinase still bound, per cent of control [30]: 69%; kinase still bound, per cent of control [31]: 100%; kinase still bound, per cent of control [32]: 85%; kinase still bound, per cent of control [33]: 95%; kinase still bound, per cent of control [34]: 100%; kinase still bound, per cent of control [35]: 1.7%; kinase still bound, per cent of control [36]: 2.7%; kinase still bound, per cent of control [37]: 94%; kinase still bound, per cent of control [38]: 100%; kinase still bound, per cent of control [39]: 96%

— the kinase profiling compilation of Christmann-Franck et al. (2016)
